Data as given in patent publication EP0037318A1, “Composition, particularly useful in the treatment and prevention of dandruff and containing metallic derivatives of thiobenzoic acid” (PIERRE FABRE S.A., priority 1980, dated 1981).
Read-outs that look alike come from different tables or passages of the source.

Assays:
[1] = Maximum solubility in water at 20°C, by spectroscopy
[2] = Partition coefficients at 20°C; format: physicochemical
Procedure: 2°) Détermination des coefficients de partage à 20°C

[3] = Anti-oxidant power: daily peroxide index (Ip) of linoleic acid containing the suspended agent; conditions: for INDICES DE PEROXYDES: agent at 1 % suspended in linoleic acid, stored at 60°C
Procedure: La mesure du pouvoir anti-oxydant est effectuée selon la méthode décrite par CARNAT et POURRAT (Ann. Pharm. Fr. 1979, 37, n° 3-4, p. 119-124) en remplaçant l'huile de lin par de l'acide linoléique.
L'oxydation de l'acide linoléique est suivie chaque jour par une mesure de l'indice de peroxydes Ip.
Dans un flacon contenant l'acide linoléique on ajoute 15 ml de CHC13, 20 ml d'acide acétique RP puis 1 ml de solution aqueuse saturée de KI. On agite 1 mn et on laisse reposer le flacon 5 mn à l'obscurité. Après avoir ajouté 100 ml d'eau on dose l'iode libéré par du thiosulfate de sodium 0,01 N. [formula] v = volume de Na2S2O3 versé dans le dosage v = volume de Na2S2O3 versé dans l'essai à blanc Ip est exprimé en mmoles d'oxygène/kg d'acide gras.
Remarque : v doit être voisin de O car un Ip élevé révèle une oxydation du KI par l'oxygène de l'air ou dissous dans les réactifs. Pour éviter cela, les réactifs et le solvant devront être débarrassés de l'oxygène dissous par barbotage de gaz inerte, ceci afin d'obtenir des résultats comparables.
Les différents agents anti-oxydants étudiés sont mis en suspension dans l'acide linoléique et les mélanges ainsi obtenus sont stockés à l'étuve (60°C).
Tous les jours un Ip est effectué sur les mélanges suivants : • 1 - acide thiosalicylique à 1 % • 2 - pyridine thione Zn à 1 % • 3 - thiosalicylate de Zn à 1 %.

[4] = Delay of auto-oxidation (Waginaire conditions): daily Ip in interesterified oil Labrafil M 1944 CS; conditions: rank order by delay of the auto-oxidation maximum; dose 1/10 000 in Labrafil M 1944 CS, Ip daily for 90 days at 60°C
Source text: (Bulletin technique SFPA n° 60) l'évolution des peroxydes se fait en trois phases : • 1) évolution lente de l'Ip (non observée avec l'acide linoléique) • 2) évolution rapide de l'Ip (deux premiers jours) • 3) stabilisation et décroissance de l'Ip.
Cette dernière période apparaît après plusieurs semaines. L'auteur attribue ce phénomène à la formation de groupements carbonyles (aldéhydes et cétones).
On obtient un profil de courbe Ip = f(t) comportant un maximum d'auto-oxydation net.
L'anti-oxydant est d'autant plus efficace que le maximum d'auto-oxydation est-retardé.

[5] = Zinc content; format: physicochemical
[6] = water

Row | % Zinc [5] | Solubilité maximum dans l'eau [6] | Molecule | Solubilité maximum dans l'eau [1] [mg % ml] | Valeurs de P ([2]; CHCl3 - eau) | Valeurs de P ([2]; Octanol-eau) | INDICES DE PEROXYDES ([3]; 0 (start)) | INDICES DE PEROXYDES ([3]; 1 jour) | INDICES DE PEROXYDES ([3]; 2 jours) | INDICES DE PEROXYDES ([3]; 3 jours) | INDICES DE PEROXYDES ([3]; 4 jours) | Pouvoir anti-oxydant [4] | activité anti-oxydante ([3]; in words, compared with pyrithione zinc)
1 | 26,3% | – | méthoxy-4-thiosalicylate de zinc [Exemple 8] | – | – | – | – | – | – | – | – | – | –
2 | 28,1% | – | ortho thiocrésotinate de zinc [Exemple 7] | – | – | – | – | – | – | – | – | – | –
3 | 30% | 1,80 mg % ml | thiosalicylate de zinc [Exemple 1] | – | 0,05 | 0,21 | 0,6 millimoles D2 pour 1000 g d'acide linoléique | 45,5 millimoles D2 pour 1000 g d'acide linoléique | 84,4 millimoles D2 pour 1000 g d'acide linoléique | 99,5 millimoles D2 pour 1000 g d'acide linoléique | 103,9 millimoles D2 pour 1000 g d'acide linoléique | thiosalicylate de Zinc > pyrithione zinc> acide thiosalicylique | excellente
4 | – | – | O=C(O)c1ccccc1S [acide thiosalicylique] | – | – | – | 0,8 millimoles D2 pour 1000 g d'acide linoléique | 117,2 millimoles D2 pour 1000 g d'acide linoléique | 191,9 millimoles D2 pour 1000 g d'acide linoléique | 202,7 millimoles D2 pour 1000 g d'acide linoléique | 204,2 millimoles D2 pour 1000 g d'acide linoléique | thiosalicylate de Zinc > pyrithione zinc> acide thiosalicylique | –
5 | 25,7% | – | chloro-5-thiosalicylate de zinc [Exemple 9] | – | – | – | – | – | – | – | – | – | –

Row | Molecule | % Zinc [5] | Solubilité maximum dans l'eau [6] | Solubilité maximum dans l'eau [1] [mg % ml] | Valeurs de P ([2]; CHCl3 - eau) | Valeurs de P ([2]; Octanol-eau) | INDICES DE PEROXYDES ([3]; 0 (start)) | INDICES DE PEROXYDES ([3]; 1 jour) | INDICES DE PEROXYDES ([3]; 2 jours) | INDICES DE PEROXYDES ([3]; 3 jours) | INDICES DE PEROXYDES ([3]; 4 jours) | Pouvoir anti-oxydant [4] | activité anti-oxydante ([3]; in words, compared with pyrithione zinc)
6 | [O-][n+]1ccccc1[S-].[O-][n+]1ccccc1[S-].[Zn+2] [pyrithione zinc] | 20,5% | – | 2 | 0,30 | 0,64 | 0,7 millimoles D2 pour 1000 g d'acide linoléique | 98 millimoles D2 pour 1000 g d'acide linoléique | 174,1 millimoles D2 pour 1000 g d'acide linoléique | 177,6 millimoles D2 pour 1000 g d'acide linoléique | 183,7 millimoles D2 pour 1000 g d'acide linoléique | thiosalicylate de Zinc > pyrithione zinc> acide thiosalicylique | –
